Test results published in US7514443B2, “Substituted pyrazolo[1,5-a]pyrimidines as inhibitors of metabotropic glutamate receptors” (Hoffmann-La Roche Inc., priority 2003, dated 2009).

melting point [°C]	SMILES
236	N#Cc1ncn2c(C(F)(F)F)cc(-c3ccc(C(F)(F)F)cc3)nc12 [Example 5.10, 2-(4-Trifluoromethyl-phenyl)-4-trifluoromethyl-imidazo[1,5-a]pyrimidine-8-carbonitrile]
218	Cc1cc(-c2ncn3c(C(F)(F)F)cc(-c4ccc(C(F)(F)F)c(C(F)(F)F)c4)nc23)ccn1 [Example 8.35, 2-(3,4-Bis-trifluoromethyl-phenyl)-8-(2-methyl-pyridin-4-yl)-4-trifluoromethyl-imidazo[1,5-a]pyrimidine]
206	FC(F)(F)c1cc(-c2ccc(Cl)cc2)nc2c(-c3cccnc3)ncn12 [Example 8.2, 2-(4-Chloro-phenyl)-8-pyridin-3-yl-4-trifluoromethyl-imidazo[1,5-a]pyrimidine]
189	N#Cc1ncn2c(C(F)(F)F)cc(-c3ccc(OCC(F)(F)F)c(C(F)(F)F)c3)nc12 [Example 5.24, 2-(4-Trifluoroethoxy-3-trifluoromethyl-phenyl)-4-trifluoromethyl-imidazo[1,5-a]pyrimidine-8-carbonitrile]
220	Cc1ccc(-c2cc(C(F)(F)F)n3cnc(C#N)c3n2)cc1C(F)(F)F [Example 5.22, 2-(4-Methyl-3-trifluoromethyl-phenyl)-4-trifluoromethyl-imidazo[1,5-a]pyrimidine-8-carbonitrile]
266	Fc1ccc(-c2cc(C(F)(F)F)n3cnc(-c4ccncc4)c3n2)cc1Cl [Example 8.11, 2-(3-Chloro-4-fluoro-phenyl)-8-pyridin-4-yl-4-trifluoromethyl-imidazo[1,5-a]pyrimidine]
290	FC(F)(F)c1cc(-c2ccc(Cl)cc2)nc2c(-c3ccncc3)ncn12 [Example 8.9, 2-(4-Chloro-phenyl)-8-pyridin-4-yl-4-trifluoromethyl-imidazo[1,5-a]pyrimidine]
180	N#Cc1ncn2c(C(F)(F)F)cc(-c3ccccc3Cl)nc12 [Example 5.6, 2-(2-Chloro-phenyl)-4-trifluoromethyl-imidazo[1,5-a]pyrimidine-8-carbonitrile]
255	Cc1cc(-c2ncn3c(C(F)(F)F)cc(-c4ccc(F)c(Cl)c4)nc23)ccn1 [Example 8.22, 2-(3-Chloro-4-fluoro-phenyl)-8-(2-methyl-pyridin-4-yl)-4-trifluoromethyl-imidazo[1,5-a]pyrimidine]
220	Cc1cc(-c2cc(C(F)(F)F)n3ncc(-c4ccnc(CO)c4)c3n2)ccc1Cl [Example 6.3, {4-[5-(4-Chloro-3-methyl-phenyl)-7-trifluoromethyl-pyrazolo[1,5-a]pyrimidin-3-yl]-pyridin-2-yl}-methanol]
177	CCOc1cc(-c2cc(C(F)(F)F)n3cnc(-c4ccnc(C)c4)c3n2)ccc1C(F)(F)F [Example 8.31, 2-(3-Ethoxy-4-trifluoromethyl-phenyl)-8-(2-methyl-pyridin-4-yl)-4-trifluoromethyl-imidazo[1,5-a]pyrimidine]
246	Cc1cc(-c2ncn3c(C(F)(F)F)cc(-c4ccc(Cl)c(C)c4)nc23)ccn1 [Example 8.21, 2-(4-Chloro-3-methyl-phenyl)-8-(2-methyl-pyridin-4-yl)-4-trifluoromethyl-imidazo[1,5-a]pyrimidine]
202	N#Cc1ncn2c(C(F)(F)F)cc(-c3ccccc3)nc12 [Example 5.1, 2-Phenyl-4-trifluoromethyl-imidazo[1,5-a]pyrimidine-8-carbonitrile]
173	Cc1cc(-c2cc(C(F)(F)F)n3cnc(-c4cccnc4)c3n2)ccc1C(F)(F)F [Example 8.8, 2-(3-Methyl-4-trifluoromethyl-phenyl)-8-pyridin-3-yl-4-trifluoromethyl-imidazo[1,5-a]pyrimidine]
231	Cc1cc(-c2cc(C(F)(F)F)n3ncc(-c4ccnc(CO)c4)c3n2)ccc1C(F)(F)F [Example 6.2, 5-(3-Methyl-4-trifluoromethyl-phenyl)-3-(2-hydroxymethyl-pyridin-4-yl)-7-trifluoromethyl-pyrazolo[1,5-a]pyrimidine]
258	FC(F)(F)c1cccc(-c2cc(C(F)(F)F)n3cnc(-c4ccncc4)c3n2)c1 [Example 8.13, 8-Pyridin-4-yl-4-trifluoromethyl-2-(3-trifluoromethyl-phenyl)-imidazo[1,5-a]pyrimidine]
269	FC(F)(F)COc1ccc(-c2cc(C(F)(F)F)n3cnc(-c4ccncc4)c3n2)cc1C(F)(F)F [Example 8.18, 8-Pyridin-4-yl-2-[4-(2,2,2-trifluoro-ethoxy)-3-trifluoromethyl-phenyl]-4-trifluoromethyl-imidazo[1,5-a]pyrimidine]
222	Cc1ccc(-c2cc(C(F)(F)F)n3cnc(-c4ccncc4)c3n2)cc1C(F)(F)F [Example 8.16, 2-(4-Methyl-3-trifluoromethyl-phenyl)-8-pyridin-4-yl-4-trifluoromethyl-imidazo[1,5-a]pyrimidine]
222	N#Cc1ncn2c(C(F)(F)F)cc(-c3cccnc3)nc12 [Example 5.26, 2-Pyridin-3-yl-4-trifluoromethyl-imidazo[1,5-a]pyrimidine-8-carbonitrile]

Continued, compound first:

SMILES	melting point [°C]
Cc1cc(-c2cnn3c(C(F)(F)F)cc(-c4ccc(C)c(C(F)(F)F)c4)nc23)cc(C)n1 [Example 4.28, 5-(4-Methyl-3-trifluoromethyl-phenyl)-3-(2,6-dimethyl-pyridin-4-yl)-7-trifluoromethyl-pyrazolo[1,5-a]pyrimidine]	258
N#Cc1cnn2c(C(F)(F)F)cc(-c3ccc(Cl)cc3Cl)nc12 [Example 1.4, 5-(2,4-Dichloro-phenyl)-7-trifluoromethyl-pyrazolo[1,5-a]pyrimidine-3-carbonitrile]	180
CCOc1ccc(-c2cc(C(F)(F)F)n3ncc(-c4ccnc(C)c4)c3n2)cc1C(F)(F)F [Example 4.44, 5-(4-Ethoxy-3-trifluoromethyl-phenyl)-3-(2-methyl-pyridin-4-yl)-7-trifluoromethyl-pyrazolo[1,5-a]pyrimidine]	250
Cc1cc(-c2cnn3c(C(F)(F)F)cc(-c4ccc(C(F)(F)F)cc4)nc23)cc(C)n1 [Example 4.23, 5-(4-Trifluoromethyl-phenyl)-3-(2,6-dimethyl-pyridin-4-yl)-7-trifluoromethyl-pyrazolo[1,5-a]pyrimidine]	257
N#CCc1nn2c(C(F)(F)F)cc(-c3ccc(F)c(Cl)c3)nc2c1C#N [Example 3.1, 5-(3-Chloro-4-fluoro-phenyl)-2-cyanomethyl-7-trifluoromethyl-pyrazolo[1,5-a]pyrimidine-3-carbonitrile]	185
FC(F)(F)c1cccc(-c2cc(C(F)(F)F)n3ncc(-c4ccncc4)c3n2)c1 [Example 4.16, 5-(3-Trifluoromethyl-phenyl)-3-pyridin-4-yl-7-trifluoromethyl-pyrazolo[1,5-a]pyrimidine]	241
Cc1cccc(-c2cc(C(F)(F)F)n3ncc(C#N)c3n2)c1 [Example 1.5, 5-(3-Methyl-phenyl)-7-trifluoromethyl-pyrazolo[1,5-a]pyrimidine-3-carbonitrile]	202
Cc1nn2c(C(F)(F)F)cc(-c3ccc(C(F)(F)F)cc3)nc2c1C#N [Example 2.1, 2-Methyl-5-(4-trifluoromethyl-phenyl)-7-trifluoromethyl-pyrazolo[1,5-a]pyrimidine-3-carbonitrile]	184
FC(F)(F)c1ccc(-c2cc(C(F)(F)F)n3ncc(-c4cccnc4)c3n2)cc1 [Example 4.14, 5-(4-Trifluoromethyl-phenyl)-3-pyridin-3-yl-7-trifluoromethyl-pyrazolo[1,5-a]pyrimidine]	163
FC(F)(F)COc1ccc(-c2cc(C(F)(F)F)n3ncc(-c4cccnc4)c3n2)cc1C(F)(F)F [Example 4.42, 5-(4-Trifluoroethoxy-3-trifluoromethyl-phenyl)-3-pyridin-3-yl-7-trifluoromethyl-pyrazolo[1,5-a]pyrimidine]	181
Cc1cc(-c2cnn3c(C(F)(F)F)cc(-c4cccc(C(F)(F)F)c4)nc23)ccn1 [Example 4.34, 5-(3-Trifluoromethyl-phenyl)-3-(2-methyl-pyridin-4-yl)-7-trifluoromethyl-pyrazolo[1,5-a]pyrimidine]	232
N#Cc1cnn2c(C(F)(F)F)cc(-c3ccc(F)cc3)nc12 [Example 1.9, 5-(4-Fluoro-phenyl)-7-trifluoromethyl-pyrazolo[1,5-a]pyrimidine-3-carbonitrile]	198
N#Cc1cnn2c(C(F)(F)F)cc(-c3ccc(F)c(Cl)c3)nc12 [Example 1.14, 5-(3-Chloro-4-fluoro-phenyl)-7-trifluoromethyl-pyrazolo[1,5-a]pyrimidine-3-carbonitrile]	190
Cc1cc(-c2cc(C(F)(F)F)n3ncc(-c4ccncc4)c3n2)ccc1Cl [Example 4.4, 5-(4-Chloro-3-methyl-phenyl)-3-pyridin-4-yl-7-trifluoromethyl-pyrazolo[1,5-a]pyrimidine]	247
N#Cc1cnn2c(C(F)(F)F)cc(-c3ccccc3Cl)nc12 [Example 1.3, 5-(2-Chloro-phenyl)-7-trifluoromethyl-pyrazolo[1,5-a]pyrimidine-3-carbonitrile]	169
Cc1cc(-c2cnn3c(C(F)(F)F)cc(-c4ccc(OCC(F)(F)F)c(C(F)(F)F)c4)nc23)ccn1 [Example 4.46, 5-[4-(2,2,2-Trifluoroethoxy)-3-trifluoromethyl-phenyl]-3-(2-methyl-pyridin-4-yl)-7-trifluoromethyl-pyrazolo[1,5-a]pyrimidine]	210
Cc1ccc(-c2cc(C(F)(F)F)n3ncc(C#N)c3n2)cc1 [Example 1.2, 5-(4-Methyl-phenyl)-7-trifluoromethyl-pyrazolo[1,5-a]pyrimidine-3-carbonitrile]	121
COc1ccc(-c2cc(C(F)(F)F)n3ncc(-c4ccncc4)c3n2)cc1 [Example 4.58, 5-(4-Methoxy-phenyl)-3-pyridin-4-yl-7-trifluoromethyl-pyrazolo[1,5-a]pyrimidine]	244
